The source of these data is patent publication US6262108A, “Medicinal use of cromoglycic acid compounds” (Kyoto Pharmaceutical Industries, Ltd., priority 1997, dated 2001).

The nature of one data set: Acute Toxicity Test. Particulars: mouse, in vivo; oral, suspension, male ICR mice. The text has this: The cromoglycic acid compound prepared in the above Example 1 was orally administered to male ICR mice (3 per group) in the form of a suspension.
Data set [1] has as its system Type IV allergic dermatitis. Kind of data set: Type IV allergic dermatitis (picryl chloride) auricle swelling. The format is in vivo, male ICR mice. Here is the method:
Male 6-week-old ICR mice (Clea Japan, Inc.) were divided into two groups of control group and administration group containing 8-9 mice each. A 0.5% methylcellulose solution (10 ml/kg) was forcefully administered orally to the control group and diethyl acetoacetylcromoglycate (100 mg/kg) was forcefully administered orally to the administration group twice a day for 14 days for each group. After the initial administration at day 8 of the administration, pentobarbital sodium (55 mg/kg) was intraperitoneally administered to each mouse and the abdomen was shaved. 5% Picryl chloride (50 μl) dissolved in acetone-olive oil (mixing ratio, 1:4) was applied to the shaved portion (diameter about 2 cm). After the initial administration at day 5 after the application (day 12 of administration), all mice were anesthetized with ether and the thickness of both auricles was measured with a dial thickness gauge (Mitutoyo Co.). […] After 48 hours from this antigen challenge, the thickness of both auricles was measured with a dial thickness gauge under ether anesthesia.
The difference between the thickness of the auricle applied with the solvent and the thickness of the auricle applied with the antigen was measured for each mouse.

Structures are written as SMILES.

In “Acute Toxicity Test”, `CCOC(=O)c1cc(=O)c2c(OCC(COc3cccc4oc(C(=O)OCC)cc(=O)c34)OC(=O)CC(C)=O)cccc2o1` [Example 1, Diethyl Acetoacetylcromoglycate] showed an LD50 of over 1000 mg/kg. Also, the “Increase in thickness of auricle after application of antigen” value in data set [1] (100 mg/kg orally twice a day for 14 days, 48 hr after applying 0.5% picryl chloride solution, mean ± standard error (n = 8-9), control 0.045 ± 0.003, p < 0.01) is 0.031 ± 0.003 mm. The “effect on swelling of the auricle (in words)” value in data set [1] (100 mg/kg orally twice a day, 48 hours after picryl chloride challenge, t-test with control group) is on record as “significant inhibitory action on the swelling of the auricle”.
